Tested on: PC3-M cells
Test: Immunocytochemistry staining of Ki67 in PC3-M cells embedded in 3D Matrigel
Type: cell-based
Conditions: 20 μM Cycloheximide in growth media; PC3-M cells in 3D Matrigel (90%), Iuvo Slide 3D ICC platform
Procedure: FIGS. 11 A-C show immunocytochemistry staining of PC3-M Cells embedded in 3D matrix. PC3-M cells were embedded in 3D Matrigel™ (90%) on the Iuvo™ Slide—3D ICC platform (Figure A.). Once the matrix gelled, growth media (with and without 20 μM Cycloheximide) was added to the side compartments of the channel. Following incubation, the cells in the matrix were fixed by flowing reagents through the side channels and allowing sufficient time for diffusion into the gel. A standard immunocytochemistry protocol (4% formaldehyde fixative, 0.5% TX-100 permeabilization buffer, 10% goat serum blocking buffer, primary antibody for Ki67 from LabVision, and AlexaFluor®594 secondary antibody) was utilized. […] FIG. 11 C. is a graph showing the quantitative analysis of the immunocytochemistry staining of PC3-M Cells embedded in a 3D Matrix.
Another embodiment of the invention provides a device that enables the use of assay methods requiring multiple liquid replacement, or wash steps that require the diffusion of large biomolecules, in matrices that are very dense, such as Matrigel™. For example, it is becoming increasingly clear that the lack of a native three dimensional tissue microenvironment seriously limits the utility and accuracy of cellular assays, many of which rely on immunocytochemistry as an endpoint. […]

C[C@@H]1C[C@@H]([C@H](O)CC2CC(=O)NC(=O)C2)C(=O)[C@@H](C)C1 [Cycloheximide]
proliferation marker Ki67 (immunocytochemistry staining): loss of proliferation marker

From US20130288292A1, “SURFACE-TENSION BASED FLOW GUIDANCE IN A MICROSTRUCTURE ENVIRONMENT” (priority 2011, published 2013)
